These results are taken from patent US20100256104A1, “NOVEL AMIDE COMPOUNDS” (ASTRAZENECA R&D, priority 2009, published 2010).

Each structure is given as a SMILES string.

The assay deals with T1, recombinant human GR (Homo sapiens, UniProt P04150).
T1 construct: purchased Panvera/Invitrogen P2812 (kit P2893)
T1 sequence (P04150 1-777): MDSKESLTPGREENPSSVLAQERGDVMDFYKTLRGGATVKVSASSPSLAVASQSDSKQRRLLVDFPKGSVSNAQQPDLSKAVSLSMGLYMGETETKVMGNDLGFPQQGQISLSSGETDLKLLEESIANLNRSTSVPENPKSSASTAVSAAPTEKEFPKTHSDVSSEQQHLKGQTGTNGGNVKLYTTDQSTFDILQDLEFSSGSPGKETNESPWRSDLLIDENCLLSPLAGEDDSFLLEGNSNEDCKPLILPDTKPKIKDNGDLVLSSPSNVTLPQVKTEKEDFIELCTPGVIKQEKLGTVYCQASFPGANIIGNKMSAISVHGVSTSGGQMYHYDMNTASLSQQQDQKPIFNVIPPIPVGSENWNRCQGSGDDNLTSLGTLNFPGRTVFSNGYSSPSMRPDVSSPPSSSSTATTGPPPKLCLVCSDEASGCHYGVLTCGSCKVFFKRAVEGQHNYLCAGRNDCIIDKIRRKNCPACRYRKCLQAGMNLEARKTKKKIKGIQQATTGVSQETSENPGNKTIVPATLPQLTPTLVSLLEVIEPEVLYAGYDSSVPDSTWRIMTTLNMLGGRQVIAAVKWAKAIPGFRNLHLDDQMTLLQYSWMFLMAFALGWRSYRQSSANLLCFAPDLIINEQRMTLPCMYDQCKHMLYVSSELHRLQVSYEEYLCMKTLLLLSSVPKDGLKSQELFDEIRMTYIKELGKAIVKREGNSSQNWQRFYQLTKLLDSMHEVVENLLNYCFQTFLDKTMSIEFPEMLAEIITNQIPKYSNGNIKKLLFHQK
Briefly: Human Glucocorticoid Receptor (GR) Assay, fluorescence polarization competition with GS Red tracer. Conditions: 2 hours at room temperature, 100% control 10 μM Dexamethasone, XLfit model 205, read-out: Inhibition of GR binding, IC50. How it is done:
Human Glucocorticoid Receptor (GR) Assay The assay is based on a commercial kit from Panvera/Invitrogen (Part number P2893). The assay technology is fluorescence polarization. The kit utilises recombinant human GR (Panvera, Part number P2812), a Fluoromone™ labelled tracer (GS Red, Panvera, Part number P2894) and a Stabilizing Peptide 10X (Panvera, Part number P2815). The GR and Stabilizing Peptide reagents are stored at −70° C. while the GS Red is stored at −20° C. Also included in the kit are 1M DTT (Panvera, Part number P2325, stored at −20° C.) and GR Screening buffer 10X (Panvera, Part number P2814, stored at −70° C. initially but once thawed stored at room temperature). Avoid repeated freeze/thaws for all reagents. The GR Screening buffer 10X comprises 100 mM potassium phosphate, 200 mM sodium molybdate, 1 mM EDTA and 20% DMSO. Test compounds (1 μL) and controls (1 μL) in 100% DMSO were added to black polystyrene 384-well plates (Greiner low volume black flat-bottom, part number 784076). 0% control was 100% DMSO and 100% control was 10 μM Dexamethasone. Background solution (8 μL; assay buffer 10X, Stabilizing Peptide, DTT and ice cold MQ water) was added to the background wells. GS Red solution (7 μL; assay buffer 10X, Stabilizing Peptide, DTT, GS Red and ice cold water) was added to all wells except background wells. GR solution (7 μL; assay buffer 10X, Stabilizing Peptide, DTT, GR and ice cold water) was added to all wells. The plate was sealed and incubated in a dark at room temperature for 2 hours. The plate was read in an Analyst plate reader (LJL Biosystems/Molecular Devices Corporation) or other similar plate reader capable of recording fluorescence polarization (excitation wavelength 530 nm, emission wavelength 590 nm and a dichroic mirror at 561 nm).
In general, IC50 refers to the concentration that inhibits the measured activity by half. In the case of `CCC(=O)O[C@]1(C(=O)SCC#N)CC[C@H]2[C@@H]3CCC4=Cc5c(cnn5-c5cccc(C(=O)NCCOC)c5)C[C@]4(C)[C@H]3[C@@H](O)C[C@@]21C` [Example 1, (1R,3aS,3bS,10aR,10bS,11S,12aS)-1-{[(Cyanomethyl)sulfanyl]carbonyl}-11-hydroxy-7-{3-[(2-methoxyethyl)carbamoyl]phenyl}-10a,12a-dimethyl-1,2,3,3a,3b,4,5,7,10,10a,10b,11,12,12a-tetradecahydrocyclopenta[5,6]naphtho[1,2-f]indazol-1-yl propanoate], the IC50 stood at 1 nM.
As for `CCC(=O)O[C@]1(C(=O)SCF)CC[C@H]2[C@@H]3CCC4=Cc5c(cnn5-c5cccc(C(=O)NCCOC)c5)C[C@]4(C)[C@H]3[C@@H](O)C[C@@]21C` [Example 2, (1R,3aS,3bS,10aR,10bS,11S,12aS)-1-{[(Fluoromethyl)sulfanyl]carbonyl}-11-hydroxy-7-{3-[(2-methoxyethyl)carbamoyl]phenyl}-10a,12a-dimethyl-1,2,3,3a,3b,4,5,7,10,10a,10b,11,12,12a-tetradecahydrocyclopenta[5,6]naphtho[1,2-f]indazol-1-yl propanoate], the IC50 turned out to be 0.81 nM.
On to `COCCNC(=O)c1cccc(-n2ncc3c2C=C2CC[C@@H]4[C@H]([C@@H](O)C[C@@]5(C)[C@H]4CC[C@]5(OC(=O)COC)C(=O)SCF)[C@@]2(C)C3)c1` [Example 3, (1R,3aS,3bS,10aR,10bS,11S,12aS)-1-{[(Fluoromethyl)sulfanyl]carbonyl}-11-hydroxy-7-{3-[(2-methoxyethyl)carbamoyl]phenyl}-10a,12a-dimethyl-1,2,3,3a,3b,4,5,7,10,10a,10b,11,12,12a-tetradecahydrocyclopenta[5,6]naphtho[1,2-f]indazol-1-yl methoxyacetate], for which the IC50 was 1.6 nM.
For the molecule `COCCNC(=O)c1cccc(-n2ncc3c2C=C2CC[C@@H]4[C@H]([C@@H](O)C[C@@]5(C)[C@H]4CC[C@]5(OC(=O)C4CC4)C(=O)SCC#N)[C@@]2(C)C3)c1` [Example 4, (1R,3aS,3bS,10aR,10bS,11S,12aS)-1-{[(Cyanomethyl)sulfanyl]carbonyl}-11-hydroxy-7-{3-[(2-methoxyethyl)carbamoyl]phenyl}-10a,12a-dimethyl-1,2,3,3a,3b,4,5,7,10,10a,10b,11,12,12a-tetradecahydrocyclopenta[5,6]naphtho[1,2-f]indazol-1-yl cyclopropanecarboxylate], the IC50 came out at 0.91 nM.
Take `COCCNC(=O)c1cccc(-n2ncc3c2C=C2CC[C@@H]4[C@H]([C@@H](O)C[C@@]5(C)[C@H]4CC[C@]5(OC(=O)C4CC4)C(=O)SCF)[C@@]2(C)C3)c1` [Example 5, (1R,3aS,3bS,10aR,10bS,11S,12aS)-1-{[(Fluoromethyl)sulfanyl]carbonyl}-11-hydroxy-7-{3-[(2-methoxyethyl)carbamoyl]phenyl}-10a,12a-dimethyl-1,2,3,3a,3b,4,5,7,10,10a,10b,11,12,12a-tetradecahydrocyclopenta[5,6]naphtho[1,2-f]indazol-1-yl cyclopropanecarboxylate]: the IC50 stood at 0.98 nM.
As for `CCC(=O)O[C@]1(C(=O)SCC#N)CC[C@H]2[C@@H]3CCC4=Cc5c(cnn5-c5cccc(C(=O)NCCSC)c5)C[C@]4(C)[C@H]3[C@@H](O)C[C@@]21C` [Example 6, (1R,3aS,3bS,10aR,10bS,11S,12aS)-1-{[(Cyanomethyl)sulfanyl]carbonyl}-11-hydroxy-10a,12a-dimethyl-7-(3-{[2-(methylsulfanyl)ethyl]carbamoyl}phenyl)-1,2,3,3a,3b,4,5,7,10,10a,10b,11,12,12a-tetradecahydrocyclopenta[5,6]naphtho[1,2-f]indazol-1-yl propanoate], the IC50 turned out to be 1.7 nM.
Consider `CCC(=O)O[C@]1(C(=O)SCF)CC[C@H]2[C@@H]3CCC4=Cc5c(cnn5-c5cccc(C(=O)NCCSC)c5)C[C@]4(C)[C@H]3[C@@H](O)C[C@@]21C` [Example 7, (1R,3aS,3bS,10aR,10bS,11S,12aS)-1-{[(Fluoromethyl)sulfanyl]carbonyl}-11-hydroxy-10a,12a-dimethyl-7-(3-{[2-(methylsulfanyl)ethyl]carbamoyl}phenyl)-1,2,3,3a,3b,4,5,7,10,10a,10b,11,12,12a-tetradecahydrocyclopenta[5,6]naphtho[1,2-f]indazol-1-yl propanoate], for which the IC50 amounted to 1.4 nM.
With `COCC(=O)O[C@]1(C(=O)SCF)CC[C@H]2[C@@H]3CCC4=Cc5c(cnn5-c5cccc(C(=O)NCCSC)c5)C[C@]4(C)[C@H]3[C@@H](O)C[C@@]21C` [Example 8, (1R,3aS,3bS,10aR,10bS,11S,12aS)-1-{[(Fluoromethyl)sulfanyl]carbonyl}-11-hydroxy-10a,12a-dimethyl-7-(3-{[2-(methylsulfanyl)ethyl]carbamoyl}phenyl)-1,2,3,3a,3b,4,5,7,10,10a,10b,11,12,12a-tetradecahydrocyclopenta[5,6]naphtho[1,2-f]indazol-1-yl methoxyacetate] the figure was 1.8 nM; with `CSCCNC(=O)c1cccc(-n2ncc3c2C=C2CC[C@@H]4[C@H]([C@@H](O)C[C@@]5(C)[C@H]4CC[C@]5(OC(=O)C4CC4)C(=O)SCC#N)[C@@]2(C)C3)c1` [Example 9, (1R,3aS,3bS,10aR,10bS,11S,12aS)-1-{[(Cyanomethyl)sulfanyl]carbonyl}-11-hydroxy-10a,12a-dimethyl-7-(3-{[2-(methylsulfanyl)ethyl]carbamoyl}phenyl)-1,2,3,3a,3b,4,5,7,10,10a,10b,11,12,12a-tetradecahydrocyclopenta[5,6]naphtho[1,2-f]indazol-1-yl cyclopropanecarboxylate], 0.91 nM.
Turning to `CSCCNC(=O)c1cccc(-n2ncc3c2C=C2CC[C@@H]4[C@H]([C@@H](O)C[C@@]5(C)[C@H]4CC[C@]5(OC(=O)C4CC4)C(=O)SCF)[C@@]2(C)C3)c1` [Example 10, (1R,3aS,3bS,10aR,10bS,11S,12aS)-1-{[(Fluoromethyl)sulfanyl]carbonyl}-11-hydroxy-10a,12a-dimethyl-7-(3-{[2-(methylsulfanyl)ethyl]carbamoyl}phenyl)-1,2,3,3a,3b,4,5,7,10,10a,10b,11,12,12a-tetradecahydrocyclopenta[5,6]naphtho[1,2-f]indazol-1-yl cyclopropanecarboxylate], the IC50 came to 1.5 nM.
For `CCC(=O)O[C@]1(C(=O)SCC#N)CC[C@H]2[C@@H]3CCC4=Cc5c(cnn5-c5cccc(C(=O)NCC(N)=O)c5)C[C@]4(C)[C@H]3[C@@H](O)C[C@@]21C` [Example 11, (1R,3aS,3bS,10aR,10bS,11S,12aS)-7-{3-[(2-Amino-2-oxoethyl)carbamoyl]phenyl}-1-{[(cyanomethyl)sulfanyl]carbonyl}-11-hydroxy-10a,12a-dimethyl-1,2,3,3a,3b,4,5,7,10,10a,10b,11,12,12a-tetradecahydrocyclopenta[5,6]naphtho[1,2-f]indazol-1-yl propanoate], the IC50 worked out at 3.7 nM.
With `CCC(=O)O[C@]1(C(=O)SCC#N)CC[C@H]2[C@@H]3CCC4=Cc5c(cnn5-c5cccc(C(=O)NC6CCS(=O)(=O)C6)c5)C[C@]4(C)[C@H]3[C@@H](O)C[C@@]21C` (stereo partly drawn) [Example 12, (1R,3aS,3bS,10aR,10bS,11S,12aS)-1-{[(Cyanomethyl)sulfanyl]carbonyl}-7-{3-[(1,1-dioxidotetrahydrothiophen-3-yl)carbamoyl]phenyl}-11-hydroxy-10a,12a-dimethyl-1,2,3,3a,3b,4,5,7,10,10a,10b,11,12,12a-tetradecahydrocyclopenta[5,6]naphtho[1,2-f]indazol-1-yl propanoate] the figure was 4.3 nM.
